Assay results published in patent publication US20130142734A1, “TARGETED DELIVERY SYSTEMS FOR DIAGNOSTIC APPLICATIONS” (priority 2010, published 2013).
Where “and” joins values, the source holds several entries; their conditions need not be identical. Identical values can stand only once. Ends that are not written are not given here.

Experiments:
[1] = Emission spectrum and fluorescence intensity of NIR dyes; type: physicochemical; conditions: excitation at 650 nm
Description: FIG. 1 depicts the emission spectrum for NIR Dyes (ICG, IR-783, and 783-S-Ph-COOH) following excitation at 650 nm (A) and 690 nm (B).
Fluorescence intensity of the NIR dyes was evaluated as well, following excitation at 650 nm (FIG. 2A).

P-(GGFLGK-IR783)5% = tested on: T1, P-(GGFLGK-IR783)5%
T1 sequence: GGFLGK

P-(GGFLGK-IR783)7.5% = tested on: T2, P-(GGFLGK-IR783)7.5%
T2 sequence: GGFLGK

P-(GGFLGK-IR783)2.5% = tested on: T3, P-(GGFLGK-IR783)2.5%
T3 sequence: GGFLGK

Cathepsin B = Cathepsin B (Homo sapiens, UniProt P07858); experiment: Cathepsin B degradation of the linker (fluorescence activation); type: biochemical; conditions: after 22 h of incubation; Cathepsin B 1.5 U, sodium acetate buffer pH 5.5
Description: 0.5 mg polymer was dissolved in 1 ml sodium acetate buffer (pH=5.5). Cathepsin B (1.5 U) was added to the solution and incubate for 24 hours at 370 C. The fluorescence intensity (excitation 650 nm & 690 nm, emission range 820 nm) was measured every 30 minutes.
The effects of IR-783-S-Ph-COOH loading on CB mediated fluorescence activation was tested.

HT-29 cells = experiment: Imaging of rectal HT-29 tumors in female mice; type: in vivo
Description: The ability of the probe to detect solid tumors in female mice bearing rectal tumors introduced via injection with HT-29 cells was also evaluated. After tumors reached ˜0.5 cm in diameter, mice were injected i.v. with 2 mg of IR-783 bearing polymeric probe. Mice were kept in metabolic cages throughout the experiment (48 h). The mice were injected with 1 mg/200 μl of P-(GGFLGK (SEQ ID NO: 11)-IR783)7.5% (CB cleavable linker) and the whole body was imaged 4, 24 and 48 h post injection. […] In images from excised organs taken 24 h post injection indicated only 1.5-fold increase in the average fluorescence efficiency between colon and tumor tissue (T/C) (1.64 and 1.3-fold of increase, FIG. 9b and FIG. 10b, respectively), due to the high background fluorescence along the gastrointestinal tract (stomach, colon and […]), even though treated in metabolic cages. Once the tumor to heart ratio (T/H) was measured, an increased of about 8-10-fold was calculated. When mice were injected with the polymeric probe with non-cleavable linker P-(AP-IR783)7.5%, and the whole body was imaged 4 post injection, the T/B ratio was 1.3.

SW-480 cells [2] = experiment: Imaging of rectally implanted SW-480 tumors in female mice; type: in vivo
Description: The ability of the probe to detect solid tumors in female mice bearing rectally tumors injected with SW-480 cells was tested. The mice were injected with 0.2 mg/200 μl of P-(GGFLGK (SEQ ID NO: 11)-IR783)2.5% and the whole body was imaged 4 and 24 h post injection. […] However images from excised organs taken 24 h post injection indicated a 4-fold increase in the average fluorescence efficiency between colon and tumor tissue (FIG. 8A).

SW-480 cells [3] = experiment: Imaging of orthotopically implanted SW-480 colon tumors in nu/nu athymic mice; type: in vivo; conditions: for time post injection of accumulation in tumor area: 2 mg i.v., orthotopic SW-480 tumors
Description: Three types of mouse models were employed to test the ability of the probes to detect solid tumors in the GI tract.
Nu/nu athymic mice were injected orthotopically into the descending colon of female with SW-480 cells. After tumors reached ˜0.5 cm in diameter, mice were injected i.v. with 2 mg of IR-783 bearing polymeric probe. The results in the orthotopically implanted tumors confirm the accumulation of both P-(GGFLGK (SEQ ID NO: 11)-IR783)2.5% and P-(GGFLGK (SEQ ID NO: 11)-IR783)7.5% polymeric probes in tumor area about 4 h post injection and retention at the tumor site for at least 48 h.
Biodistribution analysis indicated the presence of the probe in the tumor, kidneys, galbladder and the urine. The T/B ratio following whole body imaging (WBI) was 2.4 in mice treated with P-(GGFLGK (SEQ ID NO: 11)-IR783)7.5%, 4 h post injection (FIG. 6). […] The calculated ratio of the average fluorescence efficiency between colon and tumor tissue was ˜9 (FIG. 7).

[4] = Effect of dye loading on fluorescence intensity and quenching of HPMA copolymer-IR783 conjugates; type: physicochemical; conditions: dissolved in DDW; Ex: 690 nm, Em: 820 nm
Description: HPMA conjugates of various IR-783-S-Ph-COOH loadings were dissolved in DDW and their fluorescence intensity (Ex: 690 nm, Em: 820 nm). […] These observations confirm the decrease in fluorescence intensity with increasing the loading of IR-783-S-Ph-COOH on p-HPMA copolymer due to the quenching of fluorescent signal.
The effect of NIR813 loading on p-HPMA-NIR813 quenching efficiency is shown in FIG. 3 and a complete quenching was achieved when the loading level of IR-783 on P—HPMA-IR-783 was 15%.

CC1(C)C(=CC=C2CCCC(C=CC3=[N+](CCCCS(=O)(=O)O)c4ccccc4C3(C)C)=C2Cl)N(CCCCS(=O)(=O)O)c2ccccc21.[OH-] [IR-783, 2-[2-[2-Chloro-3-[2-[1,3-dihydro-3,3-dimethyl-1-(4-sulfobutyl)-2H-indol-2-ylidene]-ethylidene]-1-cyclohexen-1-yl]-ethenyl]-3,3-dimethyl-1-(4-sulfobutyl)-3H-indolium hydroxide]
maximal emission wavelength [1]: 800 nm

Cathepsin B
increase in the (fluorescence) intensity after 22 h of incubation with Cathepsin B (P-(GGFLGK-IR783)5%): 3.6-fold | increase in the (fluorescence) intensity after 22 h of incubation with Cathepsin B (P-(GGFLGK-IR783)7.5%): 4.9-fold | increase in signal intensity over time with Cathepsin B (P-(GGFLGK-IR783)2.5%): only 2-fold increase in signal intensity over time

CC1(C)C(/C=C/C2=C(Sc3ccc(C(=O)O)cc3)C(=C/C=C3\N(CCCCS(=O)(=O)O)c4ccccc4C3(C)C)/CCC2)=[N+](CCCCS(=O)(=O)[O-])c2ccccc21 [IR-783-S-Ph-COOH]
maximal emission wavelength [1]: 830 nm

CC1(C)C(/C=C/C=C/C=C/C=C2\N(CCCCS(=O)(=O)O)c3ccc4ccccc4c3C2(C)C)=[N+](CCCCS(=O)(=O)[O-])c2ccc3ccccc3c21 [ICG, indocyanine green]
maximal emission wavelength [1]: 810 nm

P-(GGFLGK-IR783)7.5%: HPMA copolymer bearing IR-783-S-Ph-COOH via degradable (CB cleavable) GGFLGK linker, 7.5% dye loading (not fully specified; also: conjugated to HPMA copolymer via GGFLGK linker)
increase in fluorescence intensity following CB degradation (Cathepsin B): 4.9 fold | T/B ratio in whole body imaging, 4 versus 24 h post injection (HT-29 cells; 1 mg/200 μl, HT-29 rectal model): not significantly different | increase in the average fluorescence efficiency between colon and tumor tissue (T/C) (HT-29 cells; excised organs taken 24 h post injection, 1 mg/200 μl): 1.5 fold | tumor to heart ratio (T/H) (HT-29 cells; excised organs, 1 mg/200 μl): 8-10 fold | increase in the average fluorescence efficiency between colon and tumor tissue (T/C), single figures (HT-29 cells; excised organs, FIG. 9b and FIG. 10b, respectively, listed as P-(GGFLGK (SEQ ID NO: 11)-IR783)7.5%): 1.64 fold and 1.3 fold | ratio in the average fluorescence efficiency between colon and tumor tissue (SW-480 cells [2]; excised tumor harvested 48 h post injection, FIG. 8b): ~4 | tumor accumulation with time (SW-480 cells [2]; whole body imaging): slight increase | time post injection of accumulation in tumor area (SW-480 cells [3]): about 4 h | T/B ratio following whole body imaging (WBI) (SW-480 cells [3]; 4 h post injection, 2 mg, FIG. 6): 2.4

P-(GGFLGK-IR783)2.5%: HPMA copolymer bearing IR-783-S-Ph-COOH via degradable GGFLGK linker, 2.5 mol % dye loading (not fully specified (N-terminus); also: IR-783-S-Ph-COOH dye attached, site not given here)
increase in fluorescence intensity following CB degradation (Cathepsin B): 2 fold | fluorescence intensity at λ=820 nm compared with copolymers of other dye loading [4]: highest fluorescence intensity | T/B ratio in whole body imaging, 4 versus 24 h post injection (SW-480 cells [2]; 0.2 mg/200 μl): not significantly different | increase in the average fluorescence efficiency between colon and tumor tissue (SW-480 cells [2]; excised organs 24 h post injection, 0.2 mg/200 μl, FIG. 8A): 4 fold | time post injection of accumulation in tumor area (SW-480 cells [3]): about 4 h | calculated ratio of the average fluorescence efficiency between colon and tumor tissue (SW-480 cells [3]; ex vivo, 48 h post injection, FIG. 7): ~9 | Biodistribution analysis: accumulation (SW-480 cells [3]; mice sacrificed 48 h post injection): significant accumulation in the tumor, kidneys and gallbladder

P-(GGFLGK-IR783)5%: HPMA copolymer bearing IR-783-S-Ph-COOH via degradable GGFLGK linker, 5% dye loading (not fully specified; also: conjugated to HPMA copolymer via GGFLGK linker)
increase in fluorescence intensity following CB degradation (Cathepsin B): 3.6 fold
